# In US4338305A, “Use of LRH and LRH agonists” (American Home Products Corporation, priority 1975, dated 1982):
# Counter-ions that a name gives are not always drawn. Like-named read-outs stand apart in the source and are kept apart here. Non-standard residues stand in square brackets, D forms with d. Residues, ends and D or L forms follow the SMILES beside them. pGlu = O=C1CC[C@@H](C(=O)O)N1
# Assays:
# Proestrous female rats = test: Ovulation Induction in the Rat; format: in vivo; details: as a result of induced LH production
# Experimental: (b) Ovulation Induction in the Rat
# Proestrous female rats were injected intraperitoneally with a hypnotic dose of Nembutal about (~60 mg/kg) at 1:30 P.M. This treatment blocks the spontaneous ovulatory surge of pituitary LH which generally occurs between 2:00 and 4:00 P.M. Between 1:40 and 1:50 P.M. the recipients then received the test material via the jugular vein. The following morning the animals are sacrificed and the fallopian tubes examined for ova under a dissecting microscope.
# [1] = tested on: Female, Sprague-Dawley rats
# From the text: Female, Sprague-Dawley rats, 350±30 g., are caged daily (P.M.) with adult, sexually experienced Sprague-Dawley males. Vaginal smears are taken each A.M. after cohabitation. The presence of vaginal sperm is used as the index of mating and the initiation of pregnancy. Day 1 of pregnancy is taken as the day sperm is found in the vaginal smear. Mated females are then grouped separately. Treatment is begun at any time over the first 12 days of pregnancy at a divided dose (9 A.M. and 3 P.M.) or a single treatment. Claudogenic activity is defined for compounds administered over the first 7 days inclusive of pregnancy (Pre-implantation). Interceptive activity is defined for compounds administered days 7-12 inclusive of pregnancy (Post-implantation). Rats are sacrificed on day 14 (claudogen), day 18 (interceptive) or allowed to come to term prior to the option of sacrifice (claudogen or interceptive.) Rats containing at least one "Normal" fetus are considered pregnant.
# For the purpose of defining the post-coital stages of pregnancy in the rat as an experimental model, the following schedule is provided in definition of post-coital contraceptive activity which, for the purpose of this disclosure, is intended to embrace both pre-(claudogenic) and post-(interceptive) implantation contraceptive activity: day 1--vaginal sperm; days 1-3--ova transport in oviducts, and fertilization; days 3-5 blastocyst free in uterine lumen; days 5-7--implantation into uterine wall; days>7--post implantation.
# [2] = literature report; cited from earlier work
# [3] = SC, total daily dose 100 μg/rat, Rx days 1-3 post coitus
# [4] = SC, total daily dose 300 μg/rat, Rx days 1-3 post coitus
# [5] = PO, total daily dose 500 μg/rat, Rx days 7-12 post coitus
# [6] = SC, total daily dose 5.0 μg/rat, Rx days 7-12 post coitus
# [7] = SC, total daily dose 100 μg/rat, Rx days 1-7 post coitus
# [8] = PO, total daily dose 500 μg/rat, Rx days 1-7 post coitus
# [9] = PO, total daily dose 1000 μg/rat, Rx days 1-7 post coitus
# [10] = PO, total daily dose 1000 μg/rat, Rx days 7-12 post coitus
# [11] = SC, total daily dose 200 μg/rat, Rx days 1-3 post coitus
# [12] = SC, total daily dose 5000 μg/rat, Rx day 3 post coitus
smiles,measurement,setting,value
"CCNC(=O)[C@@H]1CCCN1C(=O)[C@H](CCCNC(=N)N)NC(=O)[C@H](CC(C)C)NC(=O)[C@@H](CS)NC(=O)[C@H](Cc1ccc(O)cc1)NC(=O)[C@H](CO)NC(=O)[C@H](Cc1c[nH]c2ccccc12)NC(=O)[C@H](Cc1c[nH]cn1)NC(=O)[C@@H]1CCC(=O)N1 [[D-Cys^6, des-Gly-NH2^10]LRH ethylamide]",activity relative to LRH as ovulation inducing agents,Proestrous female rats,> 40 times
"CCNC(=O)[C@@H]1CCCN1C(=O)[C@H](CCCNC(=N)N)NC(=O)[C@H](CC(C)C)NC(=O)[C@@H](CCC(=O)O)NC(=O)[C@H](Cc1ccc(O)cc1)NC(=O)[C@H](CO)NC(=O)[C@H](Cc1c[nH]c2ccccc12)NC(=O)[C@H](Cc1c[nH]cn1)NC(=O)[C@@H]1CCC(=O)N1 [[D-Glu^6, des-Gly-NH2^10]LRH ethylamide]",activity relative to LRH as ovulation inducing agents,Proestrous female rats,> 40 times
"CCNC(=O)[C@@H]1CCCN1C(=O)[C@H](CCCNC(=N)N)NC(=O)[C@H](CC(C)C)NC(=O)[C@@H](CCCCN)NC(=O)[C@H](Cc1ccc(O)cc1)NC(=O)[C@H](CO)NC(=O)[C@H](Cc1c[nH]c2ccccc12)NC(=O)[C@H](Cc1c[nH]cn1)NC(=O)[C@@H]1CCC(=O)N1 [[D-Lys^6, des-Gly-NH2^10]LRH ethylamide]",activity relative to LRH as ovulation inducing agents,Proestrous female rats,> 40 times
"CCNC(=O)[C@@H]1CCCN1C(=O)[C@H](CCCNC(=N)N)NC(=O)[C@H](CC(C)C)NC(=O)[C@@H](CC(=O)O)NC(=O)[C@H](Cc1ccc(O)cc1)NC(=O)[C@H](CO)NC(=O)[C@H](Cc1c[nH]c2ccccc12)NC(=O)[C@H](Cc1c[nH]cn1)NC(=O)[C@@H]1CCC(=O)N1 [[D-Asp^6, des-Gly-NH2^10]LRH ethylamide]",activity relative to LRH as ovulation inducing agents,Proestrous female rats,> 40 times
CCNC(=O)[C@@H]1CCCN1C(=O)[C@H](CCCNC(=N)N)NC(=O)[C@H](CS)NC(=O)[C@@H](C)NC(=O)[C@H](Cc1ccc(O)cc1)NC(=O)[C@H](CO)NC(=O)[C@H](Cc1c[nH]c2ccccc12)NC(=O)[C@H](Cc1c[nH]cn1)NC(=O)[C@@H]1CCC(=O)N1 ([pGlu]HWSY[dA]CRP-NHEt),activity relative to LRH as ovulation inducing agents,Proestrous female rats,> 40 times
CCNC(=O)[C@@H]1CCCN1C(=O)[C@H](CCCNC(=N)N)NC(=O)[C@H](CO)NC(=O)[C@@H](CO)NC(=O)[C@H](Cc1ccc(O)cc1)NC(=O)[C@H](CO)NC(=O)[C@H](Cc1c[nH]c2ccccc12)NC(=O)[C@H](Cc1c[nH]cn1)NC(=O)[C@@H]1CCC(=O)N1 ([pGlu]HWSY[dS]SRP-NHEt),activity relative to LRH as ovulation inducing agents,Proestrous female rats,> 40 times
CC(C)C[C@H](NC(=O)[C@@H](C)NC(=O)[C@H](Cc1ccc(O)cc1)NC(=O)[C@H](CO)NC(=O)[C@H](Cc1c[nH]c2ccccc12)NC(=O)[C@H](Cc1c[nH]cn1)NC(=O)[C@@H]1CCC(=O)N1)C(=O)N[C@@H](CCCNC(=N)N)C(=O)N1CCC[C@H]1C(=O)NCC(N)=O [[D-Ala^6]LRH],% inhibition of Pregnancy,[1]; [3],17%
same,% inhibition of Pregnancy,[1]; [4],50%
CCNC(=O)[C@@H]1CCCN1C(=O)[C@H](CCCNC(=N)N)NC(=O)[C@H](CS)NC(=O)[C@@H](CC(C)C)NC(=O)[C@H](Cc1ccc(O)cc1)NC(=O)[C@H](CO)NC(=O)[C@H](Cc1c[nH]c2ccccc12)NC(=O)[C@H](Cc1c[nH]cn1)NC(=O)[C@@H]1CCC(=O)N1 ([pGlu]HWSY[dL]CRP-NHEt),activity relative to LRH as ovulation inducing agents,Proestrous female rats,> 40 times
CCNC(=O)[C@@H]1CCCN1C(=O)[C@H](CCCNC(=N)N)NC(=O)[C@H](CC(C)C)NC(=O)[C@@H](CC)NC(=O)[C@H](Cc1ccc(O)cc1)NC(=O)[C@H](CO)NC(=O)[C@H](Cc1c[nH]c2ccccc12)NC(=O)[C@H](Cc1c[nH]cn1)NC(=O)[C@@H]1CCC(=O)N1,% inhibition of Pregnancy,[1]; [5],20%
same,% inhibition of Pregnancy,"[1]; SC, total daily dose 5.0 μg/rat, Rx days 1-7 post coitus",40%
same,% inhibition of Pregnancy,[1]; [6],80%
same,% inhibition of Pregnancy,[1]; [7],100%
"CC(C)C[C@H](NC(=O)[C@@H](CCCCN)NC(=O)[C@H](Cc1ccc(O)cc1)NC(=O)[C@H](CO)NC(=O)[C@H](Cc1c[nH]c2ccccc12)NC(=O)[C@H](Cc1c[nH]cn1)NC(=O)[C@@H]1CCC(=O)N1)C(=O)N[C@@H](CCCNC(=N)N)C(=O)N1CCC[C@H]1C(=O)NCC(N)=O [[D-Lys^6]LRH, L-Pyroglutamyl-L-histidyl-L-tryptophyl-L-seryl-L-tyrosyl-D-lysyl-L-leucyl-L-arginyl-L-prolyl-glycinamide]",% inhibition of Pregnancy,[1]; [8],40%
same,% inhibition of Pregnancy,"[1]; SC, total daily dose 5.0 μg/rat, Rx days 1-12 post coitus",20%
same,% inhibition of Pregnancy,[1]; [3],0%
same,% inhibition of Pregnancy,[1]; [4],60%
same,% inhibition of Pregnancy,"[1]; SC, total daily dose 300 μg/rat, Rx days 1-7 post coitus",100%
CCNC(=O)[C@@H]1CCCN1C(=O)[C@H](CCCNC(=N)N)NC(=O)[C@H](CO)NC(=O)[C@@H](CC(C)C)NC(=O)[C@H](Cc1ccc(O)cc1)NC(=O)[C@H](CO)NC(=O)[C@H](Cc1c[nH]c2ccccc12)NC(=O)[C@H](Cc1c[nH]cn1)NC(=O)[C@@H]1CCC(=O)N1 ([pGlu]HWSY[dL]SRP-NHEt),activity relative to LRH as ovulation inducing agents,Proestrous female rats,> 40 times
CCNC(=O)[C@@H]1CCCN1C(=O)[C@H](CCCNC(=N)N)NC(=O)[C@H](CC(C)C)NC(=O)[C@@H](C)NC(=O)[C@H](Cc1ccc(O)cc1)NC(=O)[C@H](CO)NC(=O)[C@H](Cc1c[nH]c2ccccc12)NC(=O)[C@H](Cc1c[nH]cn1)NC(=O)[C@@H]1CCC(=O)N1,activity relative to LRH,[2],~50 times
same,"potency/activity versus LRH, in words",[2],markedly more potent than LRH
same,% inhibition of Pregnancy,"[1]; PO, total daily dose 200 μg/rat, Rx days 7-12 post coitus",0%
same,% inhibition of Pregnancy,[1]; [5],67%
same,% inhibition of Pregnancy,[1]; [9],100%
same,% inhibition of Pregnancy,[1]; [10],100%
same,% inhibition of Pregnancy,"[1]; SC, total daily dose 0.10 μg/rat, Rx days 7-12 post coitus",0%
same,% inhibition of Pregnancy,"[1]; SC, total daily dose 1.0 μg/rat, Rx days 1-7 post coitus",100%
same,% inhibition of Pregnancy,"[1]; SC, total daily dose 1.0 μg/rat, Rx days 7-12 post coitus",100%
same,% inhibition of Pregnancy,[1]; [6],100%
same,% inhibition of Pregnancy,"[1]; SC, total daily dose 50 μg/rat, Rx days 1-3 post coitus",40%
same,% inhibition of Pregnancy,[1]; [3],80%
same,% inhibition of Pregnancy,[1]; [7],100%
same,% inhibition of Pregnancy,[1]; [11],100%
same,% inhibition of Pregnancy,[1]; [12],100%
same,% inhibition of Pregnancy,"[1]; SC, total daily dose 5000 μg/rat, Rx day 7 post coitus",0%
same,% inhibition of Pregnancy,"[1]; SC, total daily dose 5000 μg/rat, Rx day 8 post coitus",100%
same,% inhibition of Pregnancy,"[1]; SC, total daily dose .002 μg/rat, Rx days 1-7 post coitus",0%
same,% inhibition of Pregnancy,"[1]; SC, total daily dose .010 μg/rat, Rx days 1-7 post coitus",30%
"CC(C)C[C@H](NC(=O)CNC(=O)[C@H](Cc1ccc(O)cc1)NC(=O)[C@H](CO)NC(=O)[C@H](Cc1c[nH]c2ccccc12)NC(=O)[C@H](Cc1cnc[nH]1)NC(=O)[C@@H]1CCC(=O)N1)C(=O)N[C@@H](CCCNC(=N)N)C(=O)N1CCC[C@H]1C(=O)NCC(N)=O [LRH, L-(5-oxo-prolyl)-L-histidyl-L-tryptophyl-L-seryl-L-tyrosyl-glycyl-L-leucyl-L-arginyl-L-prolyl-glycinamide, reference compound]",% inhibition of Pregnancy,[1]; [8],20%
same,% inhibition of Pregnancy,[1]; [5],0%
same,% inhibition of Pregnancy,[1]; [9],60%
same,% inhibition of Pregnancy,[1]; [10],100%
same,% inhibition of Pregnancy,"[1]; SC, total daily dose 50 μg/rat, Rx days 1-7 post coitus",0%
same,% inhibition of Pregnancy,[1]; [3],0%
same,% inhibition of Pregnancy,[1]; [7],100%
same,% inhibition of Pregnancy,"[1]; SC, total daily dose 200 μg/rat, Rx days 7-12 post coitus",50%
same,% inhibition of Pregnancy,[1]; [4],20%
same,% inhibition of Pregnancy,"[1]; SC, total daily dose 500 μg/rat, Rx days 1-3 post coitus",40%
same,% inhibition of Pregnancy,"[1]; SC, total daily dose 1000 μg/rat, Rx days 1-3 post coitus",40%
same,% inhibition of Pregnancy,"[1]; SC, total daily dose 1000 μg/rat, Rx days 1-7 post coitus",100%
same,% inhibition of Pregnancy,[1]; [12],100%
same,post-coital anti-pregnancy (claudogenic/interceptive) effect,"[1]; rat, administered post-coitally",effective in inhibiting pregnancy
same,teratogenicity,"[1]; rat, in vivo",some signs of teratogenicity
CCNC(=O)[C@@H]1CCCN1C(=O)[C@H](CCCNC(=N)N)NC(=O)[C@H](CC(C)C)NC(=O)[C@@H](CC(C)C)NC(=O)[C@H](Cc1ccc(O)cc1)NC(=O)[C@H](CO)NC(=O)[C@H](Cc1c[nH]c2ccccc12)NC(=O)[C@H](Cc1c[nH]cn1)NC(=O)[C@@H]1CCC(=O)N1,% inhibition of Pregnancy,[1]; [11],20%
same,% inhibition of Pregnancy,"[1]; SC, total daily dose 200 μg/rat, Rx days 1-7 post coitus",100%
"CC(C)C[C@H](NC(=O)C(C)(C)NC(=O)[C@H](Cc1ccc(O)cc1)NC(=O)[C@H](CO)NC(=O)[C@H](Cc1c[nH]c2ccccc12)NC(=O)[C@H](Cc1c[nH]cn1)NC(=O)[C@@H]1CCC(=O)N1)C(=O)N[C@@H](CCCNC(=N)N)C(=O)N1CCC[C@H]1C(=O)NCC(N)=O [[2-methyl-Ala^6]LRH, L-(5-oxoprolyl)-L-histidyl-L-tryptophyl-L-seryl-L-tyrosyl-2-methylalanyl-L-leucyl-L-arginyl-L-prolylglycinamide acetate salt]",% inhibition of Pregnancy,[1]; [7],75%
same,% inhibition of Pregnancy,"[1]; SC, total daily dose 500 μg/rat, Rx days 1-7 post coitus",100%
